Source: patent publication US20180303777A1, “Hyaluronate Compositions” (Cypress Pharmaceuticals, Inc., priority 2007, published 2018)

System: eczema
Assay: Treatment of eczema in a patient
Type: in vivo, human
Details: topical to the most gravely affected areas, before the composition
From the text: A patient with eczema visited a pediatrician. […] The patient was prescribed desoximatasone for topical administration to the most gravely affected areas. […] Subsequently, the pediatrician provided the patient's parent with an amount of the exemplary composition as described in Example 3 in a suitable container-closure system, for daily administration to the patient.

## C[C@@H]1C[C@H]2[C@@H]3CCC4=CC(=O)C=C[C@]4(C)[C@@]3(F)[C@@H](O)C[C@]2(C)[C@H]1C(=O)CO [desoximatasone]
  results of topical treatment of eczema: not satisfactory
